Tests used:
[1] = Microsomal stability (Rat); format: in vitro ADME; settings: rat microsomes
Method: (§1) Microsomal stability of disclosed compounds was investigated. The following table indicates the percent of compound remaining after 60 minutes.

[2] = target: T1, NMDAR2C expressing HEK cell membranes (Homo sapiens, UniProt Q05586+Q14957); assay: NMDAR agonist assay, [3H]MK-801 binding, NMDAR2C; format: biochemical
T1 construct: expressed in transfected cells; host or cells: HEK cells (membrane extract)
T1 sequence (Q14957 20-1233, other chains not shown): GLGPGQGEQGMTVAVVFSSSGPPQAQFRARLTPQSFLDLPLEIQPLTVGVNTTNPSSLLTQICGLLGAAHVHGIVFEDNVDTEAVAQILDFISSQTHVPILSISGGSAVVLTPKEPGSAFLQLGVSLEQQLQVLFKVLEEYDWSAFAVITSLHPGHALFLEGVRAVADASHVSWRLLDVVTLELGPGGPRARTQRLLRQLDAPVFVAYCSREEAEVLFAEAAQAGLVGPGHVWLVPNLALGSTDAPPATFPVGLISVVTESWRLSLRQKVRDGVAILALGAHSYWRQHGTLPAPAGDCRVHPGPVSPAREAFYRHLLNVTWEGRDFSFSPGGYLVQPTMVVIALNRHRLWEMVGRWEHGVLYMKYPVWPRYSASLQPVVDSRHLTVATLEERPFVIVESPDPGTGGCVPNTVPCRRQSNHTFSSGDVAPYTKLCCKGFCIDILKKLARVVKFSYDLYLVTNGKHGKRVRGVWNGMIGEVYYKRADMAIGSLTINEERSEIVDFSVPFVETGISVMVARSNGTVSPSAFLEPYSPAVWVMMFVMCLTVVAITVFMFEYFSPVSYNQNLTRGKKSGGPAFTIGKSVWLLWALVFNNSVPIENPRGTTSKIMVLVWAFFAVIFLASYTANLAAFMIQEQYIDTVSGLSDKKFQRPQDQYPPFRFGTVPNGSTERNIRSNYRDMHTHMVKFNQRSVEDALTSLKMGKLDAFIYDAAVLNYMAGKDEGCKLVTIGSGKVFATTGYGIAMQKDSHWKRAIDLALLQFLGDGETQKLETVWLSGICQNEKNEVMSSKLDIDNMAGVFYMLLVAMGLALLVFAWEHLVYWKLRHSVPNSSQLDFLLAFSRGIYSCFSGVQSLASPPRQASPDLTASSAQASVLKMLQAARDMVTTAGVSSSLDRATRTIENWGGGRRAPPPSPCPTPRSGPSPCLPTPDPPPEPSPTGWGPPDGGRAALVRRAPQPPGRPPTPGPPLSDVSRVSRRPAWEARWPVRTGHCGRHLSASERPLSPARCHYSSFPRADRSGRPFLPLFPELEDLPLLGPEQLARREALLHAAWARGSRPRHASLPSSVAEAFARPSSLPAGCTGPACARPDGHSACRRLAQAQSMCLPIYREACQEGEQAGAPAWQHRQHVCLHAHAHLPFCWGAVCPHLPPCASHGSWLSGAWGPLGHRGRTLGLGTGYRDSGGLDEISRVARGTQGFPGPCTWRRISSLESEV
Method: (§2) (nonequilibrium conditions).
(§3) The baseline value was determined from the best fit curve of the DPM values modeled using the GraphPad program and the log(agonist) vs. response(three parameters) algorithm was then subtracted from all points in the dataset.

[3] = target: T2, NMDAR2D expressing HEK cell membranes (Homo sapiens, UniProt O15399+Q05586); assay: NMDAR agonist assay, [3H]MK-801 binding, NMDAR2D; format: biochemical
T2 construct: expressed in transfected cells; host or cells: HEK cells (membrane extract)
T2 sequence (O15399 28-1336, other chains not shown): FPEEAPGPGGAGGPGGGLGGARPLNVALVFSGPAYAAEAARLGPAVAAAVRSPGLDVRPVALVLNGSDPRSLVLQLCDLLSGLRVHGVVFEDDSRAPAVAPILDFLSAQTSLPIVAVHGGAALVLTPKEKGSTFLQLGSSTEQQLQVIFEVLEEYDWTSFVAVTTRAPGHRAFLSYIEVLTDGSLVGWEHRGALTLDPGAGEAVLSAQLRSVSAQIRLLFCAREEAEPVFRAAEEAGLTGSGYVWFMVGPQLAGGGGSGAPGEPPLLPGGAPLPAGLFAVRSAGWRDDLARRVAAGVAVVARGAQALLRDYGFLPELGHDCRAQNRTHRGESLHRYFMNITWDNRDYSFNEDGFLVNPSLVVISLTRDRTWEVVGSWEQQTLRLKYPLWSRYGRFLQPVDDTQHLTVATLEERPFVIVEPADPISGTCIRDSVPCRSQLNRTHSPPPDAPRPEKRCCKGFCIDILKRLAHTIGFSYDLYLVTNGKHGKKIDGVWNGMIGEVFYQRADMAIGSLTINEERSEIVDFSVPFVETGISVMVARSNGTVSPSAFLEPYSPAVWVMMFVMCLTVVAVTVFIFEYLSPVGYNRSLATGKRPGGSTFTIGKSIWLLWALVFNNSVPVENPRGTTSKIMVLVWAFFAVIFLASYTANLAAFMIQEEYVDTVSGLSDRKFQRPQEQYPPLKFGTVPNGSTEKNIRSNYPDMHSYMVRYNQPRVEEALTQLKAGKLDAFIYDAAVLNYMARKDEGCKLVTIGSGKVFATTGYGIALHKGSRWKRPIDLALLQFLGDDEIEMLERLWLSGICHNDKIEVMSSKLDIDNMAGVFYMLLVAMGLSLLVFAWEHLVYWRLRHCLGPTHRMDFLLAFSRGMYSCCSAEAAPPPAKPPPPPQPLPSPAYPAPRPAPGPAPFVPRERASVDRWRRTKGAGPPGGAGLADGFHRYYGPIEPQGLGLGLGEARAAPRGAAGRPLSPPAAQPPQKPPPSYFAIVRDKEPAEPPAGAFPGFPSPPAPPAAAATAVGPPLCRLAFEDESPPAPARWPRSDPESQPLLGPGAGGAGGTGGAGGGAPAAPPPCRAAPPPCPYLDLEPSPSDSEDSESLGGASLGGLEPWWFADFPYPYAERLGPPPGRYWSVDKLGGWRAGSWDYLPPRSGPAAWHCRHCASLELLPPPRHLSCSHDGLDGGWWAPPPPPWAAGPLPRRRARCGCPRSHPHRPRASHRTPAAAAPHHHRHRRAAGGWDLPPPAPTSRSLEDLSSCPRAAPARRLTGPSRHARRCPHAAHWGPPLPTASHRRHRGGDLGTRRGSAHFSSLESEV
Method: as §2, §3

[4] = tested on: positive (hedonic) 50-kHz ultrasonic vocalizations (USVs); assay: Positive Emotional Learning (PEL) test; format: in vivo; settings: rat, PO, dose 0.001-1 mg/kg, one hour after administration
How it was run: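 Rats received test compound or vehicle (0.5% carboxymethyl cellulose in saline) 1 h before 3 min of experimenter-delivered rough-and-tumble play in alternating 15 s play and no-stimulation blocks. Frequency-modulated 50-kHz USVs during no-stimulation (CS) periods were counted; animals not habituated beforehand.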

[5] = IV pharmacokinetics; format: in vivo; settings: rat, in vivo, Sprague Dawley rats, 2 mg/kg, normal saline
Method: Sprague Dawley rats were dosed intravenously using a normal saline formulation containing 2 mg/kg of the compounds identified in the below table. The table below summarizes the results of the IV pharmacokinetics.

[6] = Oral pharmacokinetics (plasma, brain, CSF); format: in vivo; settings: Sprague Dawley rats, per os, 10 mg/kg
Method: In another experiment, Sprague Dawley rats were dosed per os using a normal saline formulation containing 10 mg/kg of the compounds identified in the table below. Plasma, brain, and CSF samples were analyzed at various time points over a 24 hour period. The table below summarizes the results of the oral pharmacokinetics.

[7] = target: T3, NMDAR2B expressing HEK cell membranes (Homo sapiens, UniProt Q05586+Q13224); assay: NMDAR agonist assay, [3H]MK-801 binding, NMDAR2B; format: biochemical
T3 construct: expressed in transfected cells; host or cells: HEK cells (membrane extract)
T3 sequence (Q13224 27-1484, other chains not shown): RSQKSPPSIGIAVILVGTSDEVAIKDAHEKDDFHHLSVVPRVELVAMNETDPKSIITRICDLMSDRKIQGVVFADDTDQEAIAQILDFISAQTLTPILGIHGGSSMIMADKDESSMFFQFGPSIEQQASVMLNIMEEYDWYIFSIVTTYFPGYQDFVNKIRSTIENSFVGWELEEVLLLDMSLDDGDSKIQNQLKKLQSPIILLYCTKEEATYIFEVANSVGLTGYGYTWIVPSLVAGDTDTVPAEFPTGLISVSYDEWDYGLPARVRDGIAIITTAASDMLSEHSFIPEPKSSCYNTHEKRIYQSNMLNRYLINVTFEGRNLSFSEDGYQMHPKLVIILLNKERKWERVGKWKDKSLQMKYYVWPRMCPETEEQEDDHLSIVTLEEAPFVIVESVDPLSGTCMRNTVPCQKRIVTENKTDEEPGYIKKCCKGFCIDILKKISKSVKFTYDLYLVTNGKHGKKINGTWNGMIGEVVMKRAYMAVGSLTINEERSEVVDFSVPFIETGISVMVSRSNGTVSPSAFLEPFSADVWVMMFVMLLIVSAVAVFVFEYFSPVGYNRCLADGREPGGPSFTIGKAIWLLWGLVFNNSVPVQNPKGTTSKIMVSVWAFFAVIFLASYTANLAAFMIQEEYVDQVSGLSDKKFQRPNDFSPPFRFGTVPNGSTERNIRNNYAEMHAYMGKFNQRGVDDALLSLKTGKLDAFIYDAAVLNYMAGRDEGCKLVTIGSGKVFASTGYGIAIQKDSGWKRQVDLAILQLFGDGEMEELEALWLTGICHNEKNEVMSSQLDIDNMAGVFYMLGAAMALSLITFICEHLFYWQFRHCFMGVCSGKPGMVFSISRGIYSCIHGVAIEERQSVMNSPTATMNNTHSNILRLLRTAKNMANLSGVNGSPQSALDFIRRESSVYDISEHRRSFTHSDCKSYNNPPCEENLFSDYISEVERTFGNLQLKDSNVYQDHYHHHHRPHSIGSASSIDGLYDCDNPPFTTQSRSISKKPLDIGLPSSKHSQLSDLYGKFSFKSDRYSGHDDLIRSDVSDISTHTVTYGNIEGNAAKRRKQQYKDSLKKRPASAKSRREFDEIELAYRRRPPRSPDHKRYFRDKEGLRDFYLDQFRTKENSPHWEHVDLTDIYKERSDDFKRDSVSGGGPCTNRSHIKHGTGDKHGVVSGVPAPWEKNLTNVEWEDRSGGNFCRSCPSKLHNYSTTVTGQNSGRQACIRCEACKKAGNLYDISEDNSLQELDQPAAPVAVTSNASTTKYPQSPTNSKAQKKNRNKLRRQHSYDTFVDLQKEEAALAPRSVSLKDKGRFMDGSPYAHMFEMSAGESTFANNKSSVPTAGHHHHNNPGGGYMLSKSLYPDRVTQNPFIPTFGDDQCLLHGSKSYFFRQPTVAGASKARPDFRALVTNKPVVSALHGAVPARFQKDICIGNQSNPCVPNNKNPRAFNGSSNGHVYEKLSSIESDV
Method: as §2, §3

[8] = Microsomal stability (Human); format: in vitro ADME; settings: human microsomes
Method: as §1

[9] = Plasma stability (Human); format: in vitro ADME
Method: Plasma stability of disclosed compounds was investigated. The following table indicates the percent of compound remaining after 60 minutes.

[10] = target: T4, NMDAR2A expressing HEK cell membranes (Homo sapiens, UniProt Q05586+Q12879); assay: NMDAR agonist assay, [3H]MK-801 binding, NMDAR2A; format: biochemical
T4 construct: expressed in transfected cells; host or cells: HEK cells (membrane extract)
Method: as §2, §3

**Q.** Which “Microsomal (Rat): percent of compound remaining after 60 minutes” value [1] does the source give for CC(C)CN1[C@@]2(CC[C@@]13CNC3=O)CNC2=O [Compound AD, 5-isobutyl-2,5,8-triazadispiro[3.1.36.24]undecane-1,7-dione] here?
**A.** 100%

**Q.** And the EC50 ([2]; NMDAR2C: log EC50, 50 μM glutamate, [3H]MK-801 binding)?
**A.** < 1 nM

**Q.** What about the Emax ([2]; read-out: NMDAR2C: % maximal [3H]MK-801 binding relative to 1 mM glycine) of the same molecule?
**A.** < 100%

**Q.** What about the EC50 ([3]; NMDAR2D: log EC50, 50 μM glutamate, [3H]MK-801 binding) of the same molecule?
**A.** > 100 nM

**Q.** What about the Emax ([3]; read-out: NMDAR2D: % maximal [3H]MK-801 binding relative to 1 mM glycine) of the same molecule?
**A.** 0%

**Q.** And the “Max Effect (mean number of 50 kHz USVs per 15 seconds)” value [4]?
**A.** ** (**: 11-16.9)

**Q.** And the AUC(0-t) [5]?
**A.** 4710 ng·h/mL

**Q.** What about the clearance [5] of the same molecule?
**A.** 7.01 mL/min/kg

**Q.** What about the half-life [5] of the same molecule?
**A.** 2.27 h

**Q.** What about the C0 ([5]; read-out: C0) of the same molecule?
**A.** 2800 ng/mL

**Q.** What about the Vd ([5]; read-out: Vss) of the same molecule?
**A.** 0.92 L/kg

**Q.** What about the “CSF Cmax” value ([6]; CSF) of the same molecule?
**A.** 1965.2 ng/mL

**Q.** What about the “Brain Cmax” value ([6]; brain) of the same molecule?
**A.** 1143.2 ng/mL

**Q.** What about the AUC(0-t) ([6]; rat, plasma, po) of the same molecule?
**A.** 19300 ng·h/mL

**Q.** And the bioavailability ([6]; rat, plasma, po)?
**A.** 82%

**Q.** And the Tmax ([6]; rat, plasma, po, normal saline, read-out: Tmax)?
**A.** 0.33 h

**Q.** What about the Cmax ([6]; rat, po, plasma, read-out: Cmax) of the same molecule?
**A.** 8560 ng/mL

**Q.** What about the EC50 ([7]; NMDAR2B: log EC50, 50 μM glutamate, [3H]MK-801 binding) of the same molecule?
**A.** < 1 nM

**Q.** And the Emax ([7]; read-out: NMDAR2B: % maximal [3H]MK-801 binding relative to 1 mM glycine, 50 μM glutamate, relative to 1 mM glycine)?
**A.** < 100%

**Q.** And the “Microsomal (Human): percent of compound remaining after 60 minutes” value [8]?
**A.** 100%

**Q.** And the “Plasma (Human): percent of compound remaining after 60 minutes” value [9]?
**A.** 83%

**Q.** And the EC50 ([10]; NMDAR2A: log EC50, 50 μM glutamate, [3H]MK-801 binding)?
**A.** < 1 nM

**Q.** And the Emax ([10]; read-out: NMDAR2A: % maximal [3H]MK-801 binding relative to 1 mM glycine, 50 μM glutamate, relative to 1 mM glycine)?
**A.** < 100%
